Test results from PubChem BioAssay AID1963836 (Molecular Pharmacology Branch, DTP, NCI, 2024).

System: 857933-349-R-J2-PDC complex spheroid viability
Test: Anticancer human tumor 857933-349-R-J2-PDC patient-derived colon adenocarcinoma cell line growth inhibition [POLQ]
Details: for IC50: curve of first compound; for viability, T/C: stronger effect = lower value
Description: Multicellular complex tumor spheroid response to Polymerase (POL) inhibitors (novobiocin, ART-558, RP6685) in combination with a variety of drugs and investigational agents in selected tumor cell lines
The POL inhibitors (novobiocin, ART-558, and RP6685) were evaluated both individually and in combination with standard of care and investigational anticancer small molecules within a complex spheroid model of solid tumors. . Complex spheroids include a stromal component modeled by human endothelial cells (HUVEC) and fibroblasts modeled by human mesenchymal stem cells (MSCs). The concentration ranges selected for each drug and investigational agent were based upon clinically achievable concentrations if the clinical Cmax of the agent was known.
Compounds. The drugs and investigational agents: novobiocin (NSC847541), ART-558 (NSC835418), RP-6685 (NSC848927), peposertib (NSC802822), ceralasertib (NSC780249), elimusertib (NSC800525), camonsertib (NSC841442), AZD-1390 (NSC803789), olaparib (NSC753686), talazoparib (NSC767125), rucaparib (NSC756644), sotorasib (NSC818433), MRTX-1133 (NSC836407), SN-38 (NSC673596), topotecan (NSC609699), epotoside (NSC141540), doxorubicin (NSC123127), gemcitabine (NSC613327), 5-fluorouracil (NSC19893), paclitaxel (NSC125973), vemurafenib (NSC761431), MSA-2 (NSC828583), SN-011 (NSC837082), adavosertib (NSC754352), prexasertib (NSC758257), carboplatin (NSC241240) and oxaliplatin (NSC266046), were obtained from the National Cancer Institute (NCI) Developmental Therapeutics Program Chemical Repository (21). The FDA-approved anticancer drug set is available from the Developmental Therapeutics Program at https://dtp.cancer.gov/organization/dscb/obtaining/. […] The stock solutions were prepared in dimethyl sulfoxide (DMSO, Sigma-Aldrich, St. Louis, MO, cat. D2650), except for the platinum compounds which were prepared in saline (Quality Biological, Gaithersburg, MD, cat. 114-055-101), at 800-fold the tested concentration and stored at -70 degrees C prior to their use. All drugs and investigational agents were tested over a range starting from a high concentration at or near the clinical Cmax and decreasing in half-log increments. If the clinical Cmax for an agent had not been determined, the highest concentration tested was 10 microM, except for SN-38, which was tested at a high concentration of 1 microM.
Cell Culture. All cells were maintained in an incubator at 37 degrees C and 5% CO2 with 95% humidity. The PDC lines were cultured according to standard operating procedures established by the NCI PDMR (https://pdmr.cancer.gov). Table 3 of the manuscript, lists the cell lines along with the number of the three cell types plated to form the mct-spheroids and media for tumor cell growth. After thawing, all PDC lines, except 997537-175-T-J1-PDC and 415267-285-R-J2-PDC, were cultured in Matrigel-coated flasks prepared with a working solution of 1X Ham's F-12 nutrient mix, without supplementation (Thermo Fisher Scientific, cat. 11765054), 100 U/mL penicillin-streptomycin (Thermo Fisher Scientific, cat. 15140122), and 2.5% Matrigel (Corning Inc., Corning, NY, cat. 354248) for the first three passages. The two PDC lines 997537-175-T-J1-PDC and 415267-285-R-J2-PDC were cultured on uncoated flasks. The 857933-349-R-J2-PDC line was cultured in 6C/Colon 1B media containing advanced DMEM/F-12 (Thermo Fisher Scientific, cat. 12634028), 10 mM HEPES (Thermo Fisher Scientific, cat. 15630080), 1X GlutaMAX supplement (Thermo Fisher Scientific, cat. 35050061), 0.1 mg/mL primocin (InvivoGen, San Diego, CA, cat. ant-pm-2), 10% defined fetal bovine serum, heat inactivated (HyClone Laboratories Inc., Logan, UT, cat. SH30070.03HI), 50% L-WRN conditioned media (ATCC, cat. CRL-3276), 1.25 mM N-Acetyl-L-cysteine (Sigma-Aldrich, cat. A9165), 10 mM nicotinamide (Sigma-Aldrich, cat. N0636), 1X B-27 supplement (Thermo Fisher Scientific, cat. 17504044), 1X N-2 supplement (Thermo Fisher Scientific, cat. […]
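Note: spheroids exposed to compounds for seven days before readout.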

Question: What does the source list for CC[C@@]1(O)C(=O)OCc2c1cc1n(c2=O)Cc2cc3c(CN(C)C)c(O)ccc3nc2-1 + Cc1cccc(N(C)C(=O)C2C(O)CCN2c2nc(C)cc(C(F)(F)F)c2C#N)c1?
Answer: IC50 (second compound 0.0316 µM): 65.2 nM; IC50 (second compound 0.1 µM): 99.9 nM; IC50 (second compound 0.316 µM): 69.5 nM; IC50 (second compound 1 µM): 72.2 nM; IC50 (second compound 3.16 µM): 97.4 nM; IC50 (second compound 10 µM): 18.9 nM; viability, T/C (second compound 0.0316 µM, first compound 0.000316 µM): 98.7%; viability, T/C (second compound 0.0316 µM, first compound 0.001 µM): 102%; viability, T/C (second compound 0.0316 µM, first compound 0.00316 µM): 92.8%; viability, T/C (second compound 0.0316 µM, first compound 0.01 µM): 80.6%; viability, T/C (second compound 0.0316 µM, first compound 0.0316 µM): 61.8%; viability, T/C (second compound 0.0316 µM, first compound 0.1 µM): 43.1%; viability, T/C (second compound 0.1 µM, first compound 0.000316 µM): 106%; viability, T/C (second compound 0.1 µM, first compound 0.001 µM): 94.5%; viability, T/C (second compound 0.1 µM, first compound 0.00316 µM): 88.4%; viability, T/C (second compound 0.1 µM, first compound 0.01 µM): 92.3%; viability, T/C (second compound 0.1 µM, first compound 0.0316 µM): 73.6%; viability, T/C (second compound 0.1 µM, first compound 0.1 µM): 49.3%; viability, T/C (second compound 0.316 µM, first compound 0.000316 µM): 76.4%; viability, T/C (second compound 0.316 µM, first compound 0.001 µM): 108%; viability, T/C (second compound 0.316 µM, first compound 0.00316 µM): 91.4%; viability, T/C (second compound 0.316 µM, first compound 0.01 µM): 78%; viability, T/C (second compound 0.316 µM, first compound 0.0316 µM): 76.2%; viability, T/C (second compound 0.316 µM, first compound 0.1 µM): 38.7%; viability, T/C (second compound 1 µM, first compound 0.000316 µM): 98.8%; viability, T/C (second compound 1 µM, first compound 0.001 µM): 75.8%; viability, T/C (second compound 1 µM, first compound 0.00316 µM): 83.8%; viability, T/C (second compound 1 µM, first compound 0.01 µM): 73.4%; viability, T/C (second compound 1 µM, first compound 0.0316 µM): 76.6%; viability, T/C (second compound 1 µM, first compound 0.1 µM): 40.7%; viability, T/C (second compound 3.16 µM, first compound 0.000316 µM): 95.7%; viability, T/C (second compound 3.16 µM, first compound 0.001 µM): 79.3%; viability, T/C (second compound 3.16 µM, first compound 0.00316 µM): 77.9%; viability, T/C (second compound 3.16 µM, first compound 0.01 µM): 74.1%; viability, T/C (second compound 3.16 µM, first compound 0.0316 µM): 69.4%; viability, T/C (second compound 3.16 µM, first compound 0.1 µM): 46%; viability, T/C (second compound 10 µM, first compound 0.000316 µM): 77.9%; viability, T/C (second compound 10 µM, first compound 0.001 µM): 92.3%; viability, T/C (second compound 10 µM, first compound 0.00316 µM): 85.2%; viability, T/C (second compound 10 µM, first compound 0.01 µM): 56.6%; viability, T/C (second compound 10 µM, first compound 0.0316 µM): 50.6%; viability, T/C (second compound 10 µM, first compound 0.1 µM): 37.9%
